Values after ≈ are worked out from the molar mass of the structure shown. Where two headings read alike, the source gives them in different places.
Legend:
[1] = tested on: differentiated SH-SY5Y human neuroblastoma cells; assay: MTT assay, neuroprotective effects against Aβ1-42 cytotoxicity; assay type: cell-based; details: 24 h, read-out: increase in the cell viability (MTT assay)
Procedure: Cell cultures and differentiation: SH-SY5Y cell line were growth in DMEM:F12 (1:1) media including 10% FBS and 1% penicillin/streptomycin at 37 °C and 5% CO2 until cells reach confluence. Then, cells harvested via using trypsin/EDTA solution and transferred to 48 well plates. For differentiation, media were changed to supplemented media with 10 µg/mL retinoic acid and incubated for 5 days. Finally, media were changed into serum free media supplementing with both 10 µM retinoic acid and 25 ng/mL BDNF. Differentiated cells were determined under invert microscope and the cells were used within 10 days (Encinas M, Iglesias M, Liu Y, Wang H, Muhaisen A, Ceña V, Gallego C, Comella JX. Sequential treatment of SH-SY5Y cells with retinoic acid and brain-derived neurotrophic factor gives rise to fully differentiated, neurotrophic factor-dependent, human neuron-like cells. J. Neurochem. 2002; 75:991-1003 e Cheung YT, Lau WKW, Yu MS, Lai CSW, Yeung SC, So KF, Chang RCC. Effects of all-trans-retinoic acid on human SH-SY5Y neuroblastoma as in vitro model in neurotoxicity research. Neurotoxicol. 2009; 30:127-135).
(§1) Control cells (n = 6) were cultured under normal conditions. 1% Triton X, ascorbic acid (10 µM) and hydrogen peroxide (H2O2, 25 µM) were used as positive controls for cell viability, TAC and TOS analysis, respectively.
The cultures without BLA, MEM, or LA were studied as negative control group. 1% Triton-X was added to the culture media to provide negative control group. MTT reduction and LDH release observed after 24 h of Aβ1-42-exposure at 20 µM.

[2] = tested on: differentiated SH-SY5Y human neuroblastoma cells; assay: LDH assay, neuroprotective effects against Aβ1-42 cytotoxicity; assay type: cell-based; details: with 20 µM Aβ1-42, 24 h
Procedure: Cell cultures and differentiation: SH-SY5Y cell line were growth in DMEM:F12 (1:1) media including 10% FBS and 1% penicillin/streptomycin at 37 °C and 5% CO2 until cells reach confluence. Then, cells harvested via using trypsin/EDTA solution and transferred to 48 well plates. For differentiation, media were changed to supplemented media with 10 µg/mL retinoic acid and incubated for 5 days. Finally, media were changed into serum free media supplementing with both 10 µM retinoic acid and 25 ng/mL BDNF.
(§2) Cytotechnol. 2015; 67:299-309.
as §1
The cultures without BLA, MEM, or LA were studied as negative control group. 1% Triton-X was added to the culture media to provide negative control group.

[3] = molecular target: T1, acetylcholinesterase (AChE) (Homo sapiens, UniProt P22303); assay: AChE activity in cellular model of Alzheimer's disease; assay type: cell-based; details: with 20 µM Aβ1-42, 24 h
T1 construct: endogenous in cells
T1 sequence (P22303 32-614): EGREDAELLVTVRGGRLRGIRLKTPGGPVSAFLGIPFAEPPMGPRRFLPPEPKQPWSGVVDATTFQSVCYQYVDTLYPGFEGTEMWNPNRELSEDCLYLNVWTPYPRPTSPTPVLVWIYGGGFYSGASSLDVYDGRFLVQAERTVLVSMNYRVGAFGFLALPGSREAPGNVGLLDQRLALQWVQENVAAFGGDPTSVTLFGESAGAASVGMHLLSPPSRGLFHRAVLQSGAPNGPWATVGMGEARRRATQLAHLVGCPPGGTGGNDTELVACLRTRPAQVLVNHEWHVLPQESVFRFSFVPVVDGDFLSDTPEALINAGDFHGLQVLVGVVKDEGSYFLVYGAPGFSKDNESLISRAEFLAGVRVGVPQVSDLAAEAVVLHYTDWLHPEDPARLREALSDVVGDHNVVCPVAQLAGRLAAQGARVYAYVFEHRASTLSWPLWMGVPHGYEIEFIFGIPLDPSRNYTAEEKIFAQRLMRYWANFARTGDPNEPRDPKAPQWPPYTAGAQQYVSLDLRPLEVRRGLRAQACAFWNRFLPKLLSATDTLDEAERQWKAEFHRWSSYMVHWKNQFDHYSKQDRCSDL
Procedure: Determination of AChE activity: the activity of AChE within the cellular Alzheimer Disease's model was measured by the Acetylcholinesterase Assay Kit (Colorimetric) from Abcam^(R) (Cambridge, MA, USA) according to the manufacturer's recommended protocol.
AChE activity was evaluated in differentiated SH-SY5Y cells treated with BLA, LA, MEM (25 and 50 µM) or media alone for 24 h.

[4] = tested on: cultured human lymphocytes; assay: SCE assay (genotoxicity); assay type: cell-based
Procedure: All volunteers have signed informed consent.
SCE assay: to provide successive visualization of SCEs, 5-bromo-2-deoxyuridine was added at culture cells. Exactly 70 h and 30 min after beginning of the incubations, demecolcine ([…]) was added to the cultures. After hypotonic treatment (0.075 M KCl), followed by three repetitive cycles of fixation in methanol/acetic acid solution (3:1, v/v), centrifugation and re-suspension, the cell suspension was dropped onto chilled, grease-free microscopic slides, air-dried, aged for three days, and then differentially stained for the inspection of the SCE rate according to the fluorescence plus Giemsa (FPG) procedure. For each treatment condition, well-spread twenty-five second division metaphases containing 42-46 chromosomes per cell were scored and the values obtained were calculated as SCEs per cell.
The frequencies of sister chromatid exchanges (SCEs) with increasing BLA concentrations were investigated in cultured human lymphocytes.

[5] = tested on: SHSY-5Y human neuroblastoma cell line; assay: Antitumor activity, MTT and LDH assays; assay type: cell-based; details: dose-dependent
Procedure: as §2
Antitumor activity of BLA and MEM was tested on SHSY-5Y human neuroblastoma cell line using MTT and LDH assays. Cells were grown to near-confluency before treatment. Growth of the cell line was inhibited by both drug application in a dose-dependent manner.

[6] = tested on: Staphylococcus aureus ATCC 25923; assay: Antimicrobial activity; assay type: cell-based; details: ATCC25923, S. aureus ATCC 25923
[7] = tested on: Enterococcus faecalis ATCC 29212; assay: Antimicrobial activity; assay type: cell-based; details: ATCC29212, E. faecalis ATCC 29212
[8] = tested on: Escherichia coli ATCC 25922; assay: Antimicrobial activity; assay type: cell-based; details: ATCC25922, E. coli ATCC 25922
[9] = tested on: Pseudomonas aeruginosa ATCC 27853; assay: Antimicrobial activity; assay type: cell-based; details: ATCC27853, P. aeruginosa ATCC 27853
[10] = tested on: Candida albicans ATCC 90028; assay: Antimicrobial activity; assay type: cell-based; details: ATCC90028, C. albicans ATCC 90028
[11] = tested on: peripheral human whole blood (PHWB) cells; assay: Cytotoxicity assay (MTT and LDH) on blood cells; details: 0.1 to 100 µM, 24 h, MTT and LDH assays

CC1(C)C2CC3OB(CNC(=O)CCCC[C@H]4CCSS4)O[C@]3(C)C1C2 (stereo partly drawn) [BLA, 5-((S)-1,2-dithiolan-3-yl)-N-(((3aR)-3a,5,5-trimethylhexahydro-4,6-methanobenzo[d][1,3,2]dioxaborol-2-yl)methyl)pentanamide]
viability at 25 µM [1]: 25.1% | viability at 50 µM [1]: 29.9% | viability at 100 µM [1]: 32.9% | increase in the cell viability (inhibited LDH release) ([2]; 25 µM): 62.91% | increase in the cell viability (inhibited LDH release) ([2]; 50 µM): 67.37% | increase in the cell viability (inhibited LDH release) ([2]; 100 µM): 70.65% | reduced Aβ-induced AChE activity ([3]; 25 µM): 18.77% | reduced Aβ-induced AChE activity ([3]; 50 µM): 22.96% | frequencies of sister chromatid exchanges (SCEs) ([4]; versus control group, P > 0.05): not significant differences | antitumor effects (growth inhibition) [5]: moderate antitumor effects | MIC [6]: 256 µg/mL (≈ 644 µM) | MIC [7]: 256 µg/mL (≈ 644 µM) | MIC [8]: 128 µg/mL (≈ 322 µM) | MIC [9]: 256 µg/mL (≈ 644 µM) | MIC [10]: 128 µg/mL (≈ 322 µM) | changes in cell viability [11]: did not show any significant changes in cell viability

O=C(O)CCCCC1CCSS1 (centres unmarked) [LA, 1,2-dithiolane-3-pentanoic acid]
viability at 25 µM [1]: 14.8% | viability at 50 µM [1]: 19% | viability at 100 µM [1]: 20.7% | increase in the cell viability (inhibited LDH release) ([2]; 25 µM): 53.05% | increase in the cell viability (inhibited LDH release) ([2]; 50 µM): 58.68% | increase in the cell viability (inhibited LDH release) ([2]; 100 µM): 59.86% | frequencies of sister chromatid exchanges (SCEs) [4]: not higher than the control group

Reference: patent EP3495372B1 (priority 2017, dated 2019)
